According to PubChem BioAssay (NCI):
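Each compound was tested at five concentrations against cells in 96-well plates for 48 hours. The concentration for 50% growth inhibition is given as GI50. TGI denotes the concentration required for complete inhibition of growth.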

Assays:
Test in all cases: NCI tumour cell line growth inhibition, 48 h
[1] = test system: A498 renal
[2] = test system: ACHN renal
[3] = test system: BT-549 breast
[4] = test system: CAKI-1 renal
[5] = test system: CCRF-CEM leukemia
[6] = test system: COLO 205 colon
[7] = test system: DU-145 prostate
[8] = test system: EKVX NSCLC
[9] = test system: HCC-2998 colon
[10] = test system: HCT-116 colon
[11] = test system: HCT-15 colon
[12] = test system: HL-60(TB) leukemia
[13] = test system: HOP-92 NSCLC
[14] = test system: HS 578T breast
[15] = test system: HT29 colon
[16] = test system: IGROV1 ovarian
[17] = test system: K-562 leukemia
[18] = test system: KM12 colon
[19] = test system: LOX IMVI melanoma
[20] = test system: M14 melanoma
[21] = test system: MALME-3M melanoma
[22] = test system: MCF7 breast
[23] = test system: MDA-MB-231 breast
[24] = test system: MDA-MB-435
[25] = test system: MOLT-4 leukemia
[26] = test system: NCI-H226 lung
[27] = test system: NCI-H23 lung
[28] = test system: NCI-H460 lung
[29] = test system: NCI-H522 lung
[30] = test system: NCI/ADR-RES ovarian
[31] = test system: OVCAR-3 ovarian
[32] = test system: OVCAR-4 ovarian
[33] = test system: OVCAR-5 ovarian
[34] = test system: PC-3 prostate
[35] = test system: SF-268 CNS
[36] = test system: SF-295 CNS
[37] = test system: SF-539 CNS
[38] = test system: SK-MEL-2 melanoma
[39] = test system: SK-MEL-28 melanoma
[40] = test system: SK-MEL-5 melanoma
[41] = test system: SK-OV-3 ovarian
[42] = test system: SN12C renal
[43] = test system: SNB-19 CNS
[44] = test system: SNB-75 CNS
[45] = test system: SW-620 colon
[46] = test system: T-47D breast
[47] = test system: TK-10 renal
[48] = test system: U251 CNS
[49] = test system: UACC-257 melanoma
[50] = test system: UACC-62 melanoma
[51] = test system: UO-31 renal

c1ccc(C2CC(c3cccc(Nc4ccncc4)c3)=NN2c2ccccc2)cc1 (configuration not stated)
GI50 [1]: 1420 nM
TGI [1]: 3030 nM
GI50 [2]: 1690 nM
TGI [2]: 3050 nM
GI50 [3]: 1880 nM
TGI [3]: 3870 nM
GI50 [4]: 1390 nM
TGI [4]: 2740 nM
GI50 [5]: 2090 nM
TGI [5]: 5680 nM
GI50 [6]: 1900 nM
TGI [6]: 3860 nM
GI50 [7]: 1950 nM
TGI [7]: 4020 nM
GI50 [8]: 1610 nM
TGI [8]: 3420 nM
GI50 [9]: 1580 nM
TGI [9]: 2960 nM
GI50 [10]: 1660 nM
TGI [10]: 3250 nM
GI50 [11]: 1590 nM
TGI [11]: 3180 nM
GI50 [12]: 1650 nM
TGI [12]: 3730 nM
GI50 [13]: 1450 nM
TGI [13]: 2950 nM
GI50 [14]: 1550 nM
TGI [14]: 3470 nM
GI50 [15]: 1690 nM
TGI [15]: 3490 nM
GI50 [16]: 1680 nM
TGI [16]: 3180 nM
GI50 [17]: 2020 nM
TGI [17]: 6760 nM
GI50 [18]: 1740 nM
TGI [18]: 3440 nM
GI50 [19]: 1660 nM
TGI [19]: 3050 nM
GI50 [20]: 1690 nM
TGI [20]: 3390 nM
GI50 [21]: 1570 nM
TGI [21]: 3020 nM
GI50 [22]: 1610 nM
TGI [22]: 3290 nM
GI50 [23]: 1610 nM
TGI [23]: 3000 nM
GI50 [24]: 1690 nM
TGI [24]: 3200 nM
GI50 [25]: 2020 nM
TGI [25]: 4830 nM
GI50 [26]: 8390 nM
TGI [26]: 28700 nM
GI50 [27]: 1730 nM
TGI [27]: 3350 nM
GI50 [28]: 1720 nM
TGI [28]: 3250 nM
GI50 [29]: 1620 nM
TGI [29]: 3280 nM
GI50 [30]: 1740 nM
TGI [30]: 3540 nM
GI50 [31]: 1800 nM
TGI [31]: 3540 nM
GI50 [32]: 1720 nM
TGI [32]: 3430 nM
GI50 [33]: 1830 nM
TGI [33]: 3650 nM
GI50 [34]: 1690 nM
TGI [34]: 3580 nM
GI50 [35]: 1790 nM
TGI [35]: 3650 nM
GI50 [36]: 1720 nM
TGI [36]: 3130 nM
GI50 [37]: 1710 nM
TGI [37]: 3120 nM
GI50 [38]: 1870 nM
TGI [38]: 3460 nM
GI50 [39]: 1760 nM
TGI [39]: 3190 nM
GI50 [40]: 1770 nM
TGI [40]: 3220 nM
GI50 [41]: 2380 nM
TGI [41]: 5490 nM
GI50 [42]: 1650 nM
TGI [42]: 3060 nM
GI50 [43]: 1630 nM
TGI [43]: 3000 nM
GI50 [44]: 1320 nM
TGI [44]: 2880 nM
GI50 [45]: 1650 nM
TGI [45]: 3270 nM
GI50 [46]: 2000 nM
TGI [46]: 4700 nM
GI50 [47]: 1860 nM
TGI [47]: 3600 nM
GI50 [48]: 1870 nM
TGI [48]: 3940 nM
GI50 [49]: 1940 nM
TGI [49]: 4150 nM
GI50 [50]: 1670 nM
TGI [50]: 3040 nM
GI50 [51]: 1480 nM
TGI [51]: 2800 nM
